Assay results taken from patent US20100093536A1, “CONTROL OF GRASSY WEEDS WITH VINYLGLYCINES AND VINYLGLYCINE-PRODUCING ORGANISMS” (THE STATE OF OREGON ACTING BY AND THROUGH THE STATE BOARD …, priority 2008, published 2010).

Test system: Poa annua (annual bluegrass) seeds
Assay: Standard GAF Bioassay System (Standard Poa Bioassay), seed germination scored after 7 days
Format: in vivo
Set-up: key to GERMINATION SCORE IN THE POA BIOASSAY (±Standard Error of the Mean) / GERMINATION SCORE (±Standard Error of the Mean): germination score, 0 = no germination to 4.0 = first true leaf emerged
Conditions: for reversal of the effects of GAF by amino acids, in words: in presence of WH6 culture filtrate; for toxicity of trace metal in the Poa bioassay, in words: higher concentrations tested (up to 200 μM)
Protocol: The seed of Poa annua (or other test seeds) were surface-sterilized by placing two to five grams of seeds in a 50 ml glass beaker, covering the seeds with a 50% (v/v) solution of H2SO4, and stirring vigorously for 5 minutes. The seed/acid mixture was filtered through a Gooch crucible and repeatedly rinsed with tap water to remove residual acid. The seeds were then placed in a beaker and covered with bleach (Clorox®, NaOCl, 5.25%) containing 1% (v/v) polyoxethylene sorbitan monolaurate (Tween®-20). The seeds were stirred for 5 minutes and then repeatedly rinsed with sterile deionized water and placed in a sterile Petri dish. The seeds were used immediately while wet or dried (spread in a thin layer and allowed to dry under a laminar flow hood with the Petri dish lid ajar for 4 to 8 hours) to prevent premature germination.
Bioassays for GAF activity were performed with Poa annua (annual bluegrass) seeds unless otherwise indicated. For each concentration of each test solution, 200 μl aliquots of solution were distributed to each of three wells of a sterile Costar® forty-eight well tissue culture plate (Corning® Costar® Number 3548). Three surface-sterilized Poa annua seeds were aseptically transferred to each well and submerged in the liquid, providing a total of nine observations for each concentration of each solution tested. The lid of the tissue culture plate was sealed with Parafilm® and the plate was placed in a germinator at 20° C. (8 hour day length at a light intensity of 50 μmol/m^2/s, 16 hour dark period) for seven days. Germination was scored on the basis of the following four-point system: • Score 0: No visible signs of germination. • Score 0.5: Seed coat split but plumule and coleorhiza are not visible. • Score 1.0: Plumule and coleorhiza visible. Plumule chlorotic and shorter than length of seed. Root not yet visible. • Score 1.5: Plumule still shorter than length of seed, but root is clearly visible. • Score 2.0: Plumule approximately equal in length to the seed. Root elongated. • Score 2.5: Plumule obviously longer than length of seed. First true leaf still enclosed in coleoptile. • Score 3.0: First true leaf emerged from coleoptile and green. Emerged portion of the leaf is obviously shorter than the coleoptile. • Score 3.5: First true leaf emerged from coleoptile and green. Emerged portion of the leaf is approximately equal in length to the coleoptile. • Score 4.0: First true leaf emerged from coleoptile and green. Emerged portion of the leaf is obviously longer than the coleoptile.

[1] = WH6 culture filtrate 0, amino acid 0.3 mM
[2] = WH6 culture filtrate 0, amino acid 1 mM
[3] = WH6 culture filtrate 0, amino acid 3 mM
[4] = WH6 culture filtrate 0, amino acid 10 mM
[5] = WH6 culture filtrate 0, amino acid 30 mM
[6] = WH6 culture filtrate 0.1X plus amino acid 0.3 mM
[7] = WH6 culture filtrate 0.1X plus amino acid 1 mM
[8] = WH6 culture filtrate 0.1X plus amino acid 3 mM
[9] = WH6 culture filtrate 0.1X plus amino acid 10 mM
[10] = WH6 culture filtrate 0.1X plus amino acid 30 mM
[11] = GAF Conc. 0, metal 12.5 μM, score 4.0 = normal germination, 1.0 = arrest
[12] = GAF Conc. 2X plus metal 12.5 μM

| SMILES | POA BIOASSAY SCORES (±Standard Error of the Mean) [11] | POA BIOASSAY SCORES (±Standard Error of the Mean) (GAF Conc. 0, metal 25 μM) | POA BIOASSAY SCORES (±Standard Error of the Mean) (GAF Conc. 0, metal 50 μM) | POA BIOASSAY SCORES (±Standard Error of the Mean) (GAF Conc. 0, metal 100 μM) | POA BIOASSAY SCORES (±Standard Error of the Mean) (GAF Conc. 0, metal 200 μM) | POA BIOASSAY SCORES (±Standard Error of the Mean) [12] | POA BIOASSAY SCORES (±Standard Error of the Mean) (GAF Conc. 2X plus metal 25 μM) | POA BIOASSAY SCORES (±Standard Error of the Mean) (GAF Conc. 2X plus metal 50 μM) | POA BIOASSAY SCORES (±Standard Error of the Mean) (GAF Conc. 2X plus metal 100 μM) | POA BIOASSAY SCORES (±Standard Error of the Mean) (GAF Conc. 2X plus metal 200 μM) | also measured |
| --- | --- | --- | --- | --- | --- | --- | --- | --- | --- | --- | --- |
| C[C@H](N)C(=O)O [Alanine] |  |  |  |  |  |  |  |  |  |  | GERMINATION SCORE (±Standard Error of the Mean) [1]: 4.0 ± 0.0; GERMINATION SCORE (±Standard Error of the Mean) [2]: 3.9 ± 0.1; GERMINATION SCORE (±Standard Error of the Mean) [3]: 4.0 ± 0.0; GERMINATION SCORE (±Standard Error of the Mean) [4]: 3.9 ± 0.1; GERMINATION SCORE (±Standard Error of the Mean) [5]: 3.2 ± 0.1; GERMINATION SCORE (±Standard Error of the Mean) [6]: 1.9 ± 0.1; GERMINATION SCORE (±Standard Error of the Mean) [7]: 3.3 ± 0.1; GERMINATION SCORE (±Standard Error of the Mean) [8]: 4.0 ± 0.0; GERMINATION SCORE (±Standard Error of the Mean) [9]: 4.0 ± 0.0; GERMINATION SCORE (±Standard Error of the Mean) [10]: 4.0 ± 0.0; reversal of the effects of GAF by amino acids, in words: most effective |
| [Ca+2].[Cl-].[Cl-] [CaCl2] | 4.00 ± 0.00 | 4.00 ± 0.00 | 4.00 ± 0.00 | 4.00 ± 0.00 | 4.00 ± 0.00 | 1.00 ± 0.00 | 1.00 ± 0.00 | 1.00 ± 0.00 | 1.00 ± 0.00 | 1.00 ± 0.00 |  |
| [Cu] [Copper] |  |  |  |  |  |  |  |  |  |  | toxicity of trace metal in the Poa bioassay, in words: completely inhibiting germination |
| [Cl][Cu][Cl] [CuCl2] | 3.3 ± 0.17 | 2.9 ± 0.04 | 1.2 ± 0.27 | 0.30 ± 0.28 | 0.00 ± 0.00 | 1.00 ± 0.00 | 2.58 ± 0.06 | 3.94 ± 0.06 | 2.97 ± 0.03 | 2.69 ± 0.09 |  |
| O=S(=O)([O-])[O-].[Cu+2] [CuSO4] | 3.5 ± 0.00 | 3.00 ± 0.00 | 1.11 ± 0.11 | 0.00 ± 0.00 | 0.00 ± 0.00 | 1.00 ± 0.00 | 1.00 ± 0.00 | 1.00 ± 0.00 | 3.00 ± 0.00 | 0.00 ± 0.00 |  |
| O=S(=O)([O-])[O-].[Fe+2] [FeSO4] | 4.00 ± 0.00 | 3.50 ± 0.13 | 3.00 ± 0.00 | 2.86 ± 0.44 | 2.47 ± 0.07 | 1.00 ± 0.00 | 1.00 ± 0.00 | 1.00 ± 0.00 | 1.00 ± 0.00 | 1.00 ± 0.00 |  |
| NC(=O)CC[C@H](N)C(=O)O [Glutamine] |  |  |  |  |  |  |  |  |  |  | GERMINATION SCORE (±Standard Error of the Mean) [1]: 4.0 ± 0.0; GERMINATION SCORE (±Standard Error of the Mean) [2]: 4.0 ± 0.0; GERMINATION SCORE (±Standard Error of the Mean) [3]: 3.7 ± 0.3; GERMINATION SCORE (±Standard Error of the Mean) [4]: 3.7 ± 0.3; GERMINATION SCORE (±Standard Error of the Mean) [5]: 4.0 ± 0.0; GERMINATION SCORE (±Standard Error of the Mean) [6]: 1.4 ± 0.1; GERMINATION SCORE (±Standard Error of the Mean) [7]: 1.8 ± 0.2; GERMINATION SCORE (±Standard Error of the Mean) [8]: 3.5 ± 0.3; GERMINATION SCORE (±Standard Error of the Mean) [9]: 4.0 ± 0.0; GERMINATION SCORE (±Standard Error of the Mean) [10]: 4.0 ± 0.0; reversal of the effects of GAF by amino acids, in words: most effective |
| [Fe] [Iron] |  |  |  |  |  |  |  |  |  |  | toxicity of trace metal in the Poa bioassay, in words: slight toxicity |
